Test results: ChEMBL document CHEMBL4017485, “Chromone as a Privileged Scaffold in Drug Discovery: Recent Advances” (J Med Chem, 2017)
Converted amounts (≈) assume the structure as drawn.

How the values were obtained:
Entamoeba histolytica = test: Antiamoebic activity against trophozoite stage of Entamoeba histolytica HM-1:IMSS incubated for 24 hrs measured after 48 hrs by dilution micromethod; type: functional
Pseudomonas aeruginosa = test: Antibacterial activity against Pseudomonas aeruginosa ATCC 13384 after 16 hrs by broth dilution method; type: functional; conditions: ATCC 13384, 16 h
Staphylococcus aureus = test: Antibacterial activity against Staphylococcus aureus ATCC 6538 after 16 hrs by broth dilution method; type: functional; conditions: ATCC 6538, 16 h
KB = test: Antiproliferative activity against human KB cells after 4 hrs by MTT assay; type: functional, cell-based
Candida tropicalis = test: Antifungal activity against Candida tropicalis after 24 hrs by Neubauer chamber method; type: functional
Beta-secretase 1 = Beta-secretase 1 (Homo sapiens, UniProt P56817); test: Inhibition of recombinant human BACE-1 using rhodamine labelled EVNLDAEFK as substrate after 90 mins by FRET assay
[1] = Antioxidant activity assessed as DPPH free radical scavenging activity; type: functional
[2] = Inhibition of Saccharomyces cerevisiae alpha-glucosidase using PNP-G as substarte
Acetylcholinesterase = Acetylcholinesterase (Electrophorus electricus, UniProt O42275); test: Inhibition of electric eel AChE using acetylthiocholine iodide as substrate preincubated with substrate for 15 mins followed by protein addition measured after 5 mins by Ellaman's method
[3] = molecular target: T1, Amine oxidase [flavin-containing] B (Homo sapiens, UniProt P27338); test: Inhibition of human MAO-B using p-tyramine as substrate by amplex red-based fluorescence assay
T1 sequence (P27338 whole entry): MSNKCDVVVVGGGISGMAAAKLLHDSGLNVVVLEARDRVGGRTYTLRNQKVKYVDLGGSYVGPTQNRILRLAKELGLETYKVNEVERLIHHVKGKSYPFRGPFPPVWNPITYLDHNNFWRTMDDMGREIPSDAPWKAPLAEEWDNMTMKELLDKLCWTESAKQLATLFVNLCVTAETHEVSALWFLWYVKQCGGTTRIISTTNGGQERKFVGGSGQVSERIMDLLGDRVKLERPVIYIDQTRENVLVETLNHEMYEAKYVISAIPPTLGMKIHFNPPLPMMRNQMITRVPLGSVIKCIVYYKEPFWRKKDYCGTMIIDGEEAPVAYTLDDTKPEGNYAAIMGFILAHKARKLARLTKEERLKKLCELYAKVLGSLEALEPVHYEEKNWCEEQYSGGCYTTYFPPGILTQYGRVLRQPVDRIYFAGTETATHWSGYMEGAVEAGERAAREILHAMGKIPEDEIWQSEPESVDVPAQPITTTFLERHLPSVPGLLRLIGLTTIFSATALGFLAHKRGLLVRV

MG-63 = test: Antiproliferative activity against human MG63 cells after 48 hrs by MTT assay; type: functional, cell-based; conditions: MG-63, 48 h
U2OS = test: Antiproliferative activity against human U2OS cells after 48 hrs by MTT assay; type: functional, cell-based
MCF7 = test: Antiproliferative activity against human MCF7 cells after 4 hrs by MTT assay; type: functional, cell-based; conditions: MCF7, 4 h

Sequence of Acetylcholinesterase (O42275 whole entry): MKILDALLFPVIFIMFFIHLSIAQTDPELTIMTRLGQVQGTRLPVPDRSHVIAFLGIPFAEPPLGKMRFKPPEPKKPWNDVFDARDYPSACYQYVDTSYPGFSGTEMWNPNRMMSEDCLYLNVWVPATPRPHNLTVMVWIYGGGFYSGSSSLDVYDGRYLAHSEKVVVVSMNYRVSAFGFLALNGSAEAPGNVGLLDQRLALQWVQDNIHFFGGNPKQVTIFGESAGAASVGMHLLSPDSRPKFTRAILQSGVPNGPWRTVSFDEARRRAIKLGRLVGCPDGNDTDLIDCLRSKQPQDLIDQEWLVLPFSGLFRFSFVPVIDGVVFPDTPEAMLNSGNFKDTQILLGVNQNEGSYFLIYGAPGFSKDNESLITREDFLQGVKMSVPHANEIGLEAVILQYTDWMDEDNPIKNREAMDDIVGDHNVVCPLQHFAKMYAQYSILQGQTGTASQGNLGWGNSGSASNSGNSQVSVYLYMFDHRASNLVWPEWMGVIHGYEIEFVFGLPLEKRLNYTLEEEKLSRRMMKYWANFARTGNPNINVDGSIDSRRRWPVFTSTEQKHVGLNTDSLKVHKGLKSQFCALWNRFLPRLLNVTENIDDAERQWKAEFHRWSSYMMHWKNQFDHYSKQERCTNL
Sequence of Beta-secretase 1 (P56817 whole entry): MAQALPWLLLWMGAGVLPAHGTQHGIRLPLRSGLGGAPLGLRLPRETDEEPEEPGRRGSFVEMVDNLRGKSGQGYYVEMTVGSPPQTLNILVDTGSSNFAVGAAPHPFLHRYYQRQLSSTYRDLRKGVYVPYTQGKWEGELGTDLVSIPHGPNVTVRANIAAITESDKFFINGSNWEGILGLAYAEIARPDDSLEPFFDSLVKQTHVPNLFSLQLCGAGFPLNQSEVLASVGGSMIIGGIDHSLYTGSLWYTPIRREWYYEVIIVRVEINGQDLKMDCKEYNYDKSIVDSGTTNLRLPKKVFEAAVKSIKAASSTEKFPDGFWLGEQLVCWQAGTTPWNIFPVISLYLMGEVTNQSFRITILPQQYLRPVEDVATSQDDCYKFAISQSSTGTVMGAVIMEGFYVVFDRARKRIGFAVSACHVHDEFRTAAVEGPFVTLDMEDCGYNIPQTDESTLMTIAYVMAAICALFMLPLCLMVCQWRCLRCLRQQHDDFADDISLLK

CC(C)(C)n1nnnc1C(Nc1ccccc1I)c1coc2ccccc2c1=O (stereo unspecified)
IC50 (Entamoeba histolytica): 61.7 µg/mL (≈ 123 µM)
MIC (Pseudomonas aeruginosa): 160 µg/mL (≈ 319 µM)
MIC (Staphylococcus aureus): 40 µg/mL (≈ 79.8 µM)

COc1ccc2c(=O)c(/C=C3\SC(=O)NC3=O)coc2c1
IC50 (KB): 44.1 µg/mL (≈ 145 µM)

COc1cc(NC(c2coc3cc(F)ccc3c2=O)c2nnnn2C2CCCCC2)cc(OC)c1OC (stereo unspecified)
MIC (Pseudomonas aeruginosa): 80 µg/mL (≈ 157 µM)
MIC (Candida tropicalis): 6250 µg/mL (≈ 12300 µM)
MIC (Staphylococcus aureus): 160 µg/mL (≈ 314 µM)

CCCCCC(=O)Oc1ccc2c(=O)c(C3C(OC(=O)CC)=C(C)NC(C)=C3OC(=O)CC)coc2c1
IC50 (Beta-secretase 1): 6.84 µM

COc1ccc2c(c1)OC/C(=C\c1ccc(O)c(O)c1)C2=O
EC50 [1]: 13 µM
IC50 [2]: 28 µM

O=c1c(/C=C/c2ccc(O)c(O)c2)coc2ccc(O)cc12
EC50 [1]: 17 µM
IC50 [2]: 16 µM

CC(C)(C)n1nnnc1C(Nc1ccc(Cl)cc1)c1coc2cc(F)ccc2c1=O (stereo unspecified)
IC50 (Entamoeba histolytica): 61.7 µg/mL (≈ 144 µM)

O=C1/C(=C/C2=COC3C=CC(Br)=CC3C2=O)COc2ccccc21 (stereo unspecified)
IC50 (Acetylcholinesterase): 960 nM

Cc1ccc(N/C=C2\C(=O)Oc3ccccc3C2=O)cc1
IC50 [3]: 42.3 nM

NC1=C(/C=C2\COc3ccccc3C2=O)C(=O)C2C=CC=CC2O1 (stereo unspecified)
IC50 (Acetylcholinesterase): 270 nM

O=c1cc(N2CCOCC2)oc2c(-c3ccccc3)cccc12 [LY-294002]
IC50 (MG-63): 55.2 µM
IC50 (U2OS): 63 µM

COc1ccc2c(=O)c(/C=C3\SC(=O)N(C)C3=O)coc2c1
IC50 (MCF7): 32.8 µg/mL (≈ 103 µM)

CC(C)(C)n1nnnc1C(Nc1ccccc1)c1coc2cc(F)ccc2c1=O (stereo unspecified)
MIC (Pseudomonas aeruginosa): 20 µg/mL (≈ 50.8 µM)
MIC (Staphylococcus aureus): 80 µg/mL (≈ 203 µM)
